Entries after “also recorded” stand apart in the source; their conditions may differ.
How the values were obtained:
[1] = Prior clinical trials of intravenous squalamine; format: in vivo, human; conditions: prior studies
Protocol: Systemic absorption of the aminosterol following oral administration was negligible both in this study and in prior studies involving mice, rats and dogs. […] The topical action would also explain why adverse events were largely confined to the gastrointestinal tract.
In the current clinical trial, squalamine (ENT-01) was administered orally to subjects with PD who have long standing constipation. Although this trial was the first in man oral dosing study of ENT-01, humans have long been exposed to low doses of squalamine (milligram to microgram) in the various commercial dogfish shark liver extracts available as nutraceuticals (e.g., Squalamax).

[2] = Oral bioavailability / systemic absorption estimate versus prior IV pharmacokinetic data; format: in vivo, human; conditions: this study, PD patients
Protocol: PK data were collected on the 10 patients enrolled in Stage 1 and 10 patients enrolled in Stage 2 to determine the extent of systemic absorption. In Stage 1, PK data were obtained at each visit, pre-medication, at 1, 2, 4, 8 and 24 hours (Table 10). In Stage 2, PK was measured on days 1 and 6 of the randomization period pre-medication, at 1, 2, 4 and 8 hours (Table 11).

[3] = test system: IPANs (intrinsic primary afferent neuron); conditions: perfusion through lumen of isolated bowel segment; cited from earlier work
[4] = mice, systemic administration; into the duodenum through the biliary tract; cited from earlier work
[5] = test system: mice with constipation due to overexpression of human αS; conditions: mouse models of PD, oral administration; cited from earlier work
[6] = prior studies; cited from earlier work

CC(C)[C@@H](CC[C@@H](C)[C@H]1CC[C@H]2[C@@H]3[C@H](O)C[C@H]4C[C@@H](NCCCNCCCCN)CC[C@]4(C)[C@H]3CC[C@]12C)OS(=O)(=O)O [squalamine]
systemic blood levels after intravenous versus oral administration [1]: one thousand-fold greater | systemic absorption following oral administration [2]: negligible; also recorded: not significantly absorbed | effect on IPANs of the ENS [3]: excitation of IPANs | clearance and excretion [4]: cleared by the liver and excreted as the intact molecule | gastrointestinal motility [5]: stimulates gastro-intestinal motility; also recorded: reverse gastrointestinal dysmotility | effect of intravenous administration on gastrointestinal motility [6]: not associated with increased gastrointestinal motility

Reference: patent US20200038416A1, “METHODS OF TREATING CARDIAC CONDUCTION DEFECTS USING AMINOSTEROL COMPOSITIONS” (Enterin, Inc., priority 2018, published 2020)
